Here are results for eleven compounds from PubChem BioAssay (NCI).

Test systems include MOLT-4 leukemia; PC-3 prostate; HCC-2998 colon; NCI-H522 lung; CAKI-1 renal; TK-10 renal; DU-145 prostate; NCI-H226 lung; HS 578T breast; LOX IMVI melanoma; MALME-3M melanoma; HL-60(TB) leukemia; CCRF-CEM leukemia; NCI/ADR-RES ovarian; T-47D breast; HCT-116 colon; HOP-92 NSCLC; OVCAR-3 ovarian; HT29 colon; MCF7 breast.
Test in all cases: DTP human tumour cell line panel, 48 h

Molecules are shown by their SMILES.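 Values below derive from 48-hour exposures of cells grown in 96-well plates, with endpoints linearly interpolated between the two concentrations bracketing the appropriate inhibition level. TGI: total growth inhibition.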

For `CC(C)(C)OC(=O)N1CCCC1C(=O)NC(c1ccccc1)c1ccccc1` (stereo unspecified), the TGI in the assay with MOLT-4 leukemia, in the assay with PC-3 prostate, in the assay with HCC-2998 colon, in the assay with NCI-H522 lung, with CAKI-1 renal and with TK-10 renal was above 100 µM each time. For the same compound, the TGI in the assay with DU-145 prostate, in the assay on NCI-H226 lung, with HS 578T breast, in the assay with LOX IMVI melanoma, in the assay on MALME-3M melanoma and in the assay on HL-60(TB) leukemia was above 100 µM each time. For the same compound, the TGI with CCRF-CEM leukemia, in the assay with NCI/ADR-RES ovarian, with T-47D breast, in the assay on HCT-116 colon, in the assay on HOP-92 NSCLC and in the assay with OVCAR-3 ovarian was above 100 µM each time. The total growth inhibition concentration (TGI) with HT29 colon and in the assay on MCF7 breast was above 100 µM each time.

Regarding `O=C1Cc2cn[nH]c2-c2ccccc2N1`, the TGI (commonly the concentration at which net growth stops) is 49.7 µM in the assay with MOLT-4 leukemia; above 100 µM in the assay with PC-3 prostate; 67.3 µM in the assay on HCC-2998 colon; 65.8 µM in the assay with NCI-H522 lung; above 35.2 µM with CAKI-1 renal; 91.5 µM in the assay with TK-10 renal. Further, the TGI in the assay on DU-145 prostate was above 100 µM; with NCI-H226 lung, above 100 µM; in the assay on HS 578T breast it was above 100 µM; in the assay on LOX IMVI melanoma, 33.6 µM; in the assay on MALME-3M melanoma it was above 69.7 µM; in the assay with HL-60(TB) leukemia, above 78.3 µM. Further, the TGI was 53.1 µM in the assay on CCRF-CEM leukemia; above 100 µM in the assay with NCI/ADR-RES ovarian; above 100 µM with T-47D breast; above 83.5 µM in the assay on HCT-116 colon; above 30.7 µM with HOP-92 NSCLC; 37.5 µM in the assay on OVCAR-3 ovarian. The TGI with HT29 colon and in the assay on MCF7 breast was above 100 µM in each case.

Take `CC(C)[Si]1(C(C)C)OCC2OC(n3ccc(=O)[nH]c3=O)C([Se]c3ccccc3)C2O[Si](C(C)C)(C(C)C)O1` (stereo unspecified): the concentration for total growth inhibition (TGI) in the assay on MOLT-4 leukemia was above 22.9 µM; with PC-3 prostate it was 11.9 µM; in the assay on HCC-2998 colon it was 3 µM; with NCI-H522 lung it was 4.36 µM; in the assay on CAKI-1 renal it was 24.3 µM; in the assay on TK-10 renal it was 19.9 µM. Also, the TGI was 24.7 µM in the assay on DU-145 prostate; 3.88 µM in the assay with NCI-H226 lung; 5.46 µM with HS 578T breast; 2.45 µM in the assay with LOX IMVI melanoma; 8.93 µM in the assay with MALME-3M melanoma; above 25.4 µM with HL-60(TB) leukemia. Further, the TGI in the assay on CCRF-CEM leukemia was above 24.4 µM; in the assay on NCI/ADR-RES ovarian, 26.7 µM; with T-47D breast it was 19.9 µM; in the assay with HCT-116 colon, 7.16 µM; in the assay on HOP-92 NSCLC, 13 µM; with OVCAR-3 ovarian it was 9.73 µM. The values for the TGI in the assay with HT29 colon and with MCF7 breast were 3.99 µM and 8.27 µM, respectively.

Turning to `O=C1NC(N/N=C\c2ccccc2)=N/C1=C/c1ccccc1`, the TGI in the assay with MOLT-4 leukemia is 50 µM; in the assay with PC-3 prostate it was 98.4 µM; in the assay with HCC-2998 colon, 40 µM; in the assay with NCI-H522 lung, 87 µM; in the assay with CAKI-1 renal, 87 µM; in the assay on TK-10 renal it was above 100 µM. For the same compound, the concentration for total growth inhibition (TGI) in the assay on DU-145 prostate was 78.8 µM; in the assay with NCI-H226 lung, 50.2 µM; in the assay on HS 578T breast it was 80.7 µM; in the assay on LOX IMVI melanoma it was above 100 µM; in the assay on MALME-3M melanoma it was above 100 µM; in the assay with HL-60(TB) leukemia, above 100 µM. For the same compound, the concentration for total growth inhibition (TGI) in the assay on CCRF-CEM leukemia was above 100 µM; with NCI/ADR-RES ovarian, 85.9 µM; in the assay with T-47D breast, above 100 µM; in the assay on HCT-116 colon, above 100 µM; in the assay with HOP-92 NSCLC, 66.6 µM; in the assay with OVCAR-3 ovarian, 94.9 µM. The concentration for total growth inhibition (TGI) with HT29 colon and in the assay with MCF7 breast was above 100 µM in each case.

For `CCOP(=O)(O)C(Nc1ccc(N=Nc2ccccc2)cc1)c1cccc(C(Nc2ccc(N=Nc3ccccc3)cc2)P(=O)(O)OCC)c1` (stereo unspecified), the TGI in the assay with MOLT-4 leukemia is 60.5 µM; with PC-3 prostate, 67.5 µM; in the assay with HCC-2998 colon, 71.3 µM; with NCI-H522 lung, above 100 µM; in the assay with CAKI-1 renal, above 100 µM; with TK-10 renal, above 100 µM. Further, the TGI is above 100 µM in the assay with DU-145 prostate; above 100 µM with NCI-H226 lung; above 100 µM in the assay on HS 578T breast; 77.4 µM with LOX IMVI melanoma; above 100 µM with MALME-3M melanoma; 69.7 µM in the assay on HL-60(TB) leukemia. The TGI was 96.7 µM in the assay on CCRF-CEM leukemia; above 100 µM in the assay with NCI/ADR-RES ovarian; above 100 µM in the assay on T-47D breast; above 100 µM with HCT-116 colon; above 100 µM in the assay with HOP-92 NSCLC; above 100 µM with OVCAR-3 ovarian. The TGI with HT29 colon was 40.9 µM; in the assay with MCF7 breast, above 100 µM.

Consider `O=CNc1ccccc1OCCOc1ccccc1NC=O`, for which the TGI in the assay with MOLT-4 leukemia, in the assay on PC-3 prostate, with HCC-2998 colon, in the assay with NCI-H522 lung, in the assay on CAKI-1 renal and with TK-10 renal was above 100 µM in each case. For the same compound, the TGI with DU-145 prostate, with NCI-H226 lung, with HS 578T breast, in the assay with LOX IMVI melanoma, in the assay on MALME-3M melanoma and with HL-60(TB) leukemia was above 100 µM in each case. Besides, the TGI in the assay with CCRF-CEM leukemia, with NCI/ADR-RES ovarian, in the assay with T-47D breast, with HCT-116 colon, in the assay with HOP-92 NSCLC and in the assay on OVCAR-3 ovarian was above 100 µM in each case. Besides, the TGI in the assay on HT29 colon and in the assay on MCF7 breast was above 100 µM each time.

Take `COc1cc2cc(C(=O)N3CC(CCl)c4ccc([N+](C)(C)Cc5ccccc5[N+](=O)[O-])cc43)[nH]c2c(OC)c1OC` (stereo unspecified): the TGI in the assay with MOLT-4 leukemia is 2.74 µM; in the assay with PC-3 prostate, 25.9 µM; in the assay with HCC-2998 colon, 9 µM; in the assay with NCI-H522 lung it was 0.677 µM; in the assay with CAKI-1 renal, 14.5 µM; with TK-10 renal it was above 100 µM. For the same compound, the TGI is above 100 µM in the assay on DU-145 prostate; 19.5 µM in the assay on NCI-H226 lung; 11.7 µM in the assay on HS 578T breast; 17.1 µM with LOX IMVI melanoma; 3.59 µM in the assay with MALME-3M melanoma; above 100 µM in the assay with HL-60(TB) leukemia. Also, the TGI in the assay with CCRF-CEM leukemia was above 23.8 µM; in the assay on NCI/ADR-RES ovarian it was 34.2 µM; in the assay on T-47D breast, 12.5 µM; in the assay with HCT-116 colon, above 100 µM; in the assay on HOP-92 NSCLC it was above 29.8 µM; in the assay with OVCAR-3 ovarian, above 24.6 µM. For the same compound, the TGI was above 21.8 µM in the assay on HT29 colon and above 100 µM in the assay with MCF7 breast.

For the compound `COC(=O)c1ccc2c(c1)CC1(C2)Cc2ccccc2C1=O` (stereo unspecified), the total growth inhibition concentration (TGI) was 34.4 µM in the assay on MOLT-4 leukemia; above 100 µM in the assay on PC-3 prostate; above 100 µM in the assay with HCC-2998 colon; above 100 µM with NCI-H522 lung; above 100 µM in the assay on CAKI-1 renal; above 100 µM in the assay on TK-10 renal. The TGI was above 100 µM in the assay on DU-145 prostate; 52.7 µM with NCI-H226 lung; above 100 µM in the assay with HS 578T breast; 57.4 µM with LOX IMVI melanoma; 67.1 µM with MALME-3M melanoma; 56.9 µM in the assay on HL-60(TB) leukemia. Besides, the TGI with CCRF-CEM leukemia is 56.5 µM; in the assay on NCI/ADR-RES ovarian it was 68.6 µM; with T-47D breast, above 100 µM; in the assay on HCT-116 colon, 69.4 µM; in the assay on HOP-92 NSCLC it was 82.9 µM; in the assay with OVCAR-3 ovarian, above 100 µM. In addition, the figures for the TGI with HT29 colon and in the assay with MCF7 breast were 36 µM and 52.5 µM, respectively.

Regarding `CC(Oc1ccccc1Cl)C(=O)NN1C(=O)CC(=O)N(c2ccc(Cl)cc2)C1=S` (stereo unspecified), the TGI was 95.8 µM in the assay on MOLT-4 leukemia; above 100 µM in the assay on PC-3 prostate; above 100 µM with HCC-2998 colon; above 100 µM in the assay on NCI-H522 lung; above 100 µM in the assay with CAKI-1 renal; above 100 µM in the assay with TK-10 renal. Further, the TGI is above 100 µM in the assay on DU-145 prostate; above 100 µM with NCI-H226 lung; above 100 µM with HS 578T breast; above 100 µM in the assay on LOX IMVI melanoma; above 100 µM in the assay on MALME-3M melanoma; 8.68 µM in the assay on HL-60(TB) leukemia. Also, the TGI was above 100 µM with NCI/ADR-RES ovarian; above 100 µM in the assay with T-47D breast; above 100 µM in the assay with HCT-116 colon; 63.2 µM with HOP-92 NSCLC; above 100 µM in the assay with OVCAR-3 ovarian; above 100 µM in the assay with HT29 colon. Moreover, the TGI in the assay on MCF7 breast was above 100 µM.

Take `Cc1ccc2nc(NS(=O)(=O)c3cc(C)c(Cl)cc3S)[nH]c2c1`: the TGI with MOLT-4 leukemia, in the assay on PC-3 prostate, with HCC-2998 colon, in the assay with NCI-H522 lung, in the assay on CAKI-1 renal and in the assay on TK-10 renal was above 100 µM each time. In addition, the TGI in the assay on DU-145 prostate is above 100 µM; in the assay on HS 578T breast, above 100 µM; with LOX IMVI melanoma it was 73.2 µM; in the assay on MALME-3M melanoma, above 100 µM; in the assay with HL-60(TB) leukemia it was 72.7 µM; in the assay on CCRF-CEM leukemia it was 69.8 µM. Besides, the total growth inhibition concentration (TGI) with NCI/ADR-RES ovarian, with T-47D breast, in the assay with HCT-116 colon, with HOP-92 NSCLC, in the assay on OVCAR-3 ovarian and with HT29 colon was above 100 µM in each case. This compound showed a total growth inhibition concentration (TGI) with MCF7 breast above 100 µM.

Consider `CC(C)(O)c1cc2c(cc1C(C)(C)O)-c1ccccc1-2`, for which the TGI in the assay with MOLT-4 leukemia, in the assay on PC-3 prostate, in the assay on HCC-2998 colon, in the assay with NCI-H522 lung, with CAKI-1 renal and in the assay with TK-10 renal was above 100 µM in each case. Also, the TGI with DU-145 prostate, with NCI-H226 lung, with HS 578T breast, in the assay with LOX IMVI melanoma, in the assay with MALME-3M melanoma and in the assay on HL-60(TB) leukemia was above 100 µM each time. Besides, the TGI with CCRF-CEM leukemia, in the assay on NCI/ADR-RES ovarian, in the assay with T-47D breast, with HOP-92 NSCLC, in the assay with OVCAR-3 ovarian and with MCF7 breast was above 100 µM throughout.
